Data reported in ChEMBL document CHEMBL4840346, “Amakusamine from a Psammocinia sp. Sponge: Isolation, Synthesis, and SAR Study on the Inhibition of RANKL-Induced Formation of Multinuclear Osteoclasts” (J Nat Prod, 2021).
The source made the active and inactive calls. The rule behind the calls is not given here.

Assays:
[1] = test system: RAW264.7; assay: Inhibition of RANKL-induced osteoclastogenesis in mouse RAW264.7 cells assessed as reduction in number of TRAP-positive multinuclear cells measured after 4 days by TRAP staining based assay; type: functional, cell-based
[2] = test system: RAW264.7; assay: Cytotoxicity against mouse RAW264.7 cells at 50 uM by MTT assay; type: cell-based; settings: raw264.7, 50 µM
[3] = test system: RAW264.7; assay: Cytotoxicity against mouse RAW264.7 cells at 25 uM by MTT assay; type: cell-based; settings: raw264.7, 25 µM
[4] = test system: RAW264.7; assay: Inhibition of RANKL-induced osteoclastogenesis in mouse RAW264.7 cells assessed as reduction in number of TRAP-positive multinuclear cells at 50 uM measured after 4 days by TRAP staining based assay; type: functional; settings: for inhibition: time 4.0 day
[5] = test system: RAW264.7; assay: Inhibition of RANKL-induced osteoclastogenesis in mouse RAW264.7 cells assessed as reduction in NFATc1 mRNA expression measured after 24 hrs by RT-PCR analysis; type: functional, cell-based; settings: dose 30-50 µM

Structure (SMILES) | IC50 ([1]; Mus musculus, RAW264.7, 96 h) [µM] | Activity [2] | also measured
CCCCCCCC(=O)n1ccc2c(Br)c3c(c(Br)c21)OCO3 | 11.1 | Non-Toxic | –
Brc1c2c(c(Br)c3c1OCO3)NCC2 | 25.6 | Non-Toxic | –
COc1c(OC)c(Br)c2[nH]ccc2c1Br | 6.3 | Non-Toxic | –
NCCc1c[nH]c2c(Br)c3c(c(Br)c12)OCO3 | 5.9 | – | Activity [3]: Toxic
OCc1c[nH]c2c(Br)c3c(c(Br)c12)OCO3 | 10 | Non-Toxic | –
Clc1c2c(c(Cl)c3[nH]ccc13)OCO2 | 40 | Non-Toxic | –
O=C(c1ccccc1)n1ccc2c(Br)c3c(c(Br)c21)OCO3 | – | Non-Toxic | inhibition [4]: inactive
c1cc2cc3c(cc2[nH]1)OCO3 | – | Non-Toxic | inhibition [4]: inactive
CCCC(=O)n1ccc2c(Br)c3c(c(Br)c21)OCO3 | 7.9 | Non-Toxic | –
Brc1[nH]c2cc3c(cc2c1Br)OCO3 | – | Non-Toxic | inhibition at 50 µM ([4]; RAW264.7, 96 h, time 4 day): 40%
Brc1c2c(c(Br)c3[nH]ccc13)OCO2 | 10.5 | Non-Toxic | inhibition [5]: Dose-Dependent Effect; IC50 ([1]; raw264.7): 9.4 µM; inhibition ([1]; time 4.0 day): Dose-Dependent Effect
Cc1c[nH]c2c(Br)c3c(c(Br)c12)OCO3 | 8.1 | Non-Toxic | –
Brc1c2c(cc3[nH]ccc13)OCO2 | 16.8 | Non-Toxic | –
CCCCCCCCCCCCCC(=O)n1ccc2c(Br)c3c(c(Br)c21)OCO3 | – | Non-Toxic | inhibition [4]: inactive
O=Cc1c[nH]c2c(Br)c3c(c(Br)c12)OCO3 | 13.9 | Non-Toxic | –
Brc1c2c(cc3cc[nH]c13)OCO2 | 35.4 | Non-Toxic | –
CC(=O)n1ccc2c(Br)c3c(c(Br)c21)OCO3 | 11.7 | Non-Toxic | –
